Values joined by “and” are separate entries in the source; they are usually repeats but may differ in a detail not shown here. Equal values may be shown once.
Test system: 947758-054-R-J2-PDC spheroid growth, percent test/control
Test: Anticancer human tumor 947758-054-R-J2-PDC patient-derived colon adenocarcinoma cell line growth inhibition [CLK]
Details: spheroids with HUVEC and MSC; for viability, T/C: stronger effect = lower value
From the text: A high-throughput screen of multi-cell type tumor spheroids was designed to identify active combinations of […] and targeted small molecules. Complex spheroids include a stromal component modeled by human endothelial cells (HUVEC) and fibroblasts modeled by human mesenchymal stem cells (MSCs). The concentration ranges selected for each drug and investigational agent were based upon clinically achievable concentrations if the clinical Cmax of the agent was known.
Compounds. The drugs and investigational agents: cirtuvivint (SM08502; NSC835563), CC-671 (NSC850746), vemurafenib (NSC761431), tapotoclax (NSC804041), sotorasib (NSC818433), adagrasib (NSC831453), MRTX-1133 (NSC836407), BAY2416964 (NSC825713), copanlisib (NSC816437), inavolisib (NSC800729), abemaciclib (NSC768073), osimertinib (NSC779217), entinostat (NSC756642), eltanexor (KPT-8602, NSC794443), venetoclax (NSC766270), ceralasertib (NSC777638), bortezomib (NSC756655), olaparib (NSC753686), talazoparib (NSC767125), alisertib (NSC759677), peposertib (NSC802822), gemcitabine (NSC613327), 5-fluorouracil (NSC19893), SN-38 (NSC673596), oxaliplatin (NSC266046), paclitaxel (NSC125973), and doxorubicin (NSC123127), were obtained from the National Cancer Institute (NCI) Developmental Therapeutics Program Chemical Repository. The FDA-approved anticancer drug set is available from the Developmental Therapeutics Program at https://dtp.cancer.gov/organization/dscb/obtaining/available plates.htm. […] The stock solutions were prepared in dimethyl sulfoxide (DMSO, Sigma-Aldrich, St. Louis, MO, cat. D2650), except for the platinum complexes which were prepared in saline (Quality Biological, Gaithersburg, MD, cat. 114-055-101), at 800-fold the tested concentration and stored at -70 degrees C prior to their use. All drugs and investigational agents were tested over a range starting from a high concentration at or near the clinical Cmax and decreasing in half-log increments. If the clinical Cmax for an agent had not been determined, the highest concentration tested was 10 microM.
Cell Culture. All cells were maintained in an incubator at 37 degrees C and 5% CO2 with 95% humidity. The PDC lines were cultured according to standard operating procedures established by the NCI PDMR. Briefly, all PDCs were thawed and cultured in Matrigel-coated flasks prepared with a working solution of 1X Ham's F-12 nutrient mix, without supplementation (Invitrogen, Waltham, MA, cat. 11765054), 100 U/mL penicillin-streptomycin (Invitrogen, cat. 15140122), and 2.5% Matrigel (Corning Inc., Corning, NY, cat. 354248) for the first three passages. The 947758-054-R-J2-PDC line was cultured in 6B/Colon 1A media, which includes advanced DMEM/F-12 (Thermo Fisher Scientific, cat. 12634028), 10 mM HEPES (Thermo Fisher Scientific, cat. 15630080), 1X GlutaMAX supplement (Thermo Fisher Scientific, cat. 35050061), 0.1 mg/mL primocin (InvivoGen, cat. ant-pm-2), 10% defined fetal bovine serum, heat inactivated (HyClone Laboratories Inc., cat. SH30070.03HI), 1.25 mM N-Acetyl-L-cysteine (Sigma-Aldrich, cat. A9165), 10 mM nicotinamide (Sigma-Aldrich, cat. N0636), 1X B-27 supplement (Thermo Fisher Scientific, cat. 17504044), 1X N-2 supplement (Thermo Fisher Scientific, cat. 17502048), and 10 microM Y-27632 dihydrochloride (Tocris Bioscience, cat. 1254). The 876862-298-R-J1-PDC was cultured in 6E media, which includes all 6B/Colon 1A media components plus 50% L-WRN conditioned media (ATCC, cat. CRL-3276), 50 ng/mL recombinant human EGF recombinant protein (hEGF; Thermo Fisher Scientific, cat. PHG0311), 10 ng/mL recombinant human fibroblast growth factor 10 (hGFG-10; PeproTech, cat. 100-26), 1 ng/mL recombinant human fibroblast growth factor 2 (hFGF-2; PeproTech, cat. 100-18B), and 1 µM prostaglandin E2 (PGE2; Tocris, cat. 2296). The 227483-062-R1-J1-PDC line was cultured in Panc media, containing all 6E components except hFGF-2, with the addition of 500 nM SB-431542 (Selleckchem, cat. S1067) and 10 nM gastrin (Tocris, cat. 3006). […]

[1] = curve of first compound, second compound 0.0316 µM
[2] = curve of first compound, second compound 0.1 µM
[3] = curve of first compound, second compound 0.316 µM
[4] = curve of first compound, second compound 1 µM
[5] = curve of first compound, second compound 3.16 µM
[6] = curve of first compound, second compound 10 µM
[7] = second compound 0.0316 µM, first compound 0.0316 µM
[8] = second compound 0.0316 µM, first compound 0.1 µM
[9] = second compound 0.0316 µM, first compound 0.316 µM
[10] = second compound 0.0316 µM, first compound 1 µM
[11] = second compound 0.1 µM, first compound 0.0316 µM
[12] = second compound 0.1 µM, first compound 0.1 µM
[13] = second compound 0.1 µM, first compound 0.316 µM
[14] = second compound 0.1 µM, first compound 1 µM
[15] = second compound 0.316 µM, first compound 0.0316 µM
[16] = second compound 0.316 µM, first compound 0.1 µM
[17] = second compound 0.316 µM, first compound 0.316 µM
[18] = second compound 0.316 µM, first compound 1 µM
[19] = second compound 1 µM, first compound 0.0316 µM
[20] = second compound 1 µM, first compound 0.1 µM
[21] = second compound 1 µM, first compound 0.316 µM
[22] = second compound 1 µM, first compound 1 µM
[23] = second compound 3.16 µM, first compound 0.0316 µM
[24] = second compound 3.16 µM, first compound 0.1 µM
[25] = second compound 3.16 µM, first compound 0.316 µM
[26] = second compound 3.16 µM, first compound 1 µM
[27] = second compound 10 µM, first compound 0.0316 µM
[28] = second compound 10 µM, first compound 0.1 µM
[29] = second compound 10 µM, first compound 0.316 µM
[30] = second compound 10 µM, first compound 1 µM
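Note: spheroids exposed to compounds for one week before readout.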
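Throughout, for viability, T/C: 100% = DMSO vehicle control wells.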

Compound `CCN1CCN(Cc2ccc(Nc3ncc(F)c(-c4cc(F)c5nc(C)n(C(C)C)c5c4)n3)nc2)CC1` + CNC(=O)c1ccc(Nc2nc(OC3CCCC3)c3c(-c4ccc5nc(C)oc5c4)c[nH]c3n2)c(OC)c1 has an IC50 [1] of 0.792 µM, an IC50 [2] of 0.263 µM and an IC50 [3] of 0.046 µM. The IC50 [4] was 0.00665 µM, the IC50 [5] was less than 0.00316 µM and the IC50 [6] was less than 0.00316 µM. For the same compound, the viability, T/C (second compound 0.0316 µM, first compound 0.00316 µM) was 96.1%, the viability, T/C (second compound 0.0316 µM, first compound 0.01 µM) was 94.5% and the viability, T/C [7] was 90.7%. The viability, T/C [8] was 73%, the viability, T/C [9] was 61.5% and the viability, T/C [10] was 46.9%. The viability, T/C (second compound 0.1 µM, first compound 0.00316 µM) was 102%, the viability, T/C (second compound 0.1 µM, first compound 0.01 µM) was 73.2% and the viability, T/C [11] was 61.4%. It also gave a viability, T/C [12] of 65.8%, a viability, T/C [13] of 57.4% and a viability, T/C [14] of 32.8%. It also gave a viability, T/C (second compound 0.316 µM, first compound 0.00316 µM) of 101%, a viability, T/C (second compound 0.316 µM, first compound 0.01 µM) of 71.3% and a viability, T/C [15] of 39.5%. It also gave a viability, T/C [16] of 60.1%, a viability, T/C [17] of 38.9% and a viability, T/C [18] of 22.3%. It also gave a viability, T/C (second compound 1 µM, first compound 0.00316 µM) of 59.2%, a viability, T/C (second compound 1 µM, first compound 0.01 µM) of 46.8% and a viability, T/C [19] of 31.9%. For the same compound, the viability, T/C [20] was 31%, the viability, T/C [21] was 42.4% and the viability, T/C [22] was 19.8%. The viability, T/C (second compound 3.16 µM, first compound 0.00316 µM) was 52.2%, the viability, T/C (second compound 3.16 µM, first compound 0.01 µM) was 32.5% and the viability, T/C [23] was 39.8%. It also gave a viability, T/C [24] of 34%, a viability, T/C [25] of 33.7% and a viability, T/C [26] of 25.1%. The viability, T/C (second compound 10 µM, first compound 0.00316 µM) was 40%, the viability, T/C (second compound 10 µM, first compound 0.01 µM) was 41.2% and the viability, T/C [27] was 35.6%. The viability, T/C [28] was 31.6%, the viability, T/C [29] was 21.1% and the viability, T/C [30] was 21.1%.
With `COc1cccc2c1C(=O)c1c(O)c3c(c(O)c1C2=O)CC(O)(C(=O)CO)CC3OC1CC(N)C(O)C(C)O1` (stereo unspecified) the viability, T/C (compound 0.0316 µM) was 94.6% and 56.2%, the viability, T/C (compound 0.1 µM) was 39.9% and 44.2% and the viability, T/C (compound 0.316 µM) was 22.5% and 26.6%. The viability, T/C (compound 1 µM) was 11.3%, the viability, T/C (compound 3.16 µM) was 0.28% and 0.34% and the viability, T/C (compound 10 µM) was 3.11% and 2.84%. For the same compound, the IC50 (curve of compound) was 0.0849 µM and 0.0585 µM.
For `Nc1ccn(C2OC(CO)C(O)C2(F)F)c(=O)n1` (stereo unspecified) + CN1CCN(c2cc(C(=O)Nc3cc4cc(-c5cnn(C)c5)ccc4cn3)ccn2)CC1, the IC50 [1] was 0.0331 µM, the IC50 [2] was less than 0.0316 µM and the IC50 [3] was less than 0.0316 µM. The IC50 [4] was less than 0.0316 µM, the IC50 [5] was less than 0.0316 µM and the IC50 [6] was less than 0.0316 µM. The viability, T/C [7] was 51.6%, the viability, T/C [8] was 9.51% and the viability, T/C [9] was 11.7%. It also gave a viability, T/C [10] of 13.8%, a viability, T/C (second compound 0.0316 µM, first compound 3.16 µM) of 10.8% and a viability, T/C (second compound 0.0316 µM, first compound 10 µM) of 6.34%. It also gave a viability, T/C [11] of 20.8%, a viability, T/C [12] of 6.62% and a viability, T/C [13] of 10.4%. For the same compound, the viability, T/C [14] was 10.6%, the viability, T/C (second compound 0.1 µM, first compound 3.16 µM) was 7.69% and the viability, T/C (second compound 0.1 µM, first compound 10 µM) was 7.26%. For the same compound, the viability, T/C [15] was 2.49%, the viability, T/C [16] was 1.07% and the viability, T/C [17] was 1.17%. The viability, T/C [18] was 0.85%, the viability, T/C (second compound 0.316 µM, first compound 3.16 µM) was 0.53% and the viability, T/C (second compound 0.316 µM, first compound 10 µM) was 3.53%. The viability, T/C [19] was 0.13%, the viability, T/C [20] was 0.13% and the viability, T/C [21] was 2.17%. It also gave a viability, T/C [22] of 0.08%, a viability, T/C (second compound 1 µM, first compound 3.16 µM) of 0.45% and a viability, T/C (second compound 1 µM, first compound 10 µM) of 0.11%. It also gave a viability, T/C [23] of 1.66%, a viability, T/C [24] of 0.22% and a viability, T/C [25] of 0.38%. It also gave a viability, T/C [26] of 0.21%, a viability, T/C (second compound 3.16 µM, first compound 3.16 µM) of 0.27% and a viability, T/C (second compound 3.16 µM, first compound 10 µM) of 0.3%. It also gave a viability, T/C [27] of 0.27%, a viability, T/C [28] of 0.28% and a viability, T/C [29] of 0.31%. It also gave a viability, T/C [30] of 0.32%, a viability, T/C (second compound 10 µM, first compound 3.16 µM) of 1.07% and a viability, T/C (second compound 10 µM, first compound 10 µM) of 0.35%.
